Laboratory results published in ChEMBL document CHEMBL1201862, “PubChem BioAssay data set” (2004).
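Protocol summary: plate cells (96-well), add compound at 5 concentrations, incubate 48 h, interpolate endpoints linearly. The concentration for 50% growth inhibition is given as GI50.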 Active and inactive are the calls of the source. No stated cut-off is given here; in the data, active = GI50 up to about 1.1 µM and inactive = higher.

Columns and labels:
Assay in all cases: NCI anticancer screen, dose series, 48 h
RPMI-8226 = tested on: RPMI-8226
KM12 = tested on: KM12
CAKI-1 = tested on: CAKI-1
M14 = tested on: M14
CCRF-CEM = tested on: CCRF-CEM
SK-MEL-5 = tested on: SK-MEL-5
K562 = tested on: K562
UO-31 = tested on: UO-31
SNB-19 = tested on: SNB-19
ACHN = tested on: ACHN
IGROV-1 = tested on: IGROV-1
A498 = tested on: A498
SK-MEL-28 = tested on: SK-MEL-28
U-251 = tested on: U-251
SK-MEL-2 = tested on: SK-MEL-2
NCI-H226 = tested on: NCI-H226

Row | Compound | GI50 (RPMI-8226) | GI50 (KM12) | GI50 (CAKI-1) | GI50 (M14) | GI50 (CCRF-CEM) | GI50 (SK-MEL-5) | GI50 (K562) | GI50 (UO-31) | GI50 (SNB-19) | GI50 (ACHN) | GI50 (IGROV-1) | GI50 (A498) | GI50 (SK-MEL-28) | GI50 (U-251) | GI50 (SK-MEL-2) | GI50 (NCI-H226)
1 | CC1CCC(C(C)C)C(O[C@@H]2OC(=O)C[C@@H]2Sc2ccccc2)C1 (stereo partly specified) | 13.3 µM (inactive) | 20.3 µM (inactive) | 23.3 µM (inactive) | 23.2 µM (inactive) | 7.01 µM (inactive) | 16.2 µM (inactive) | 19.1 µM (inactive) | > 10 µM (inactive) | 35.1 µM (inactive) | 20 µM (inactive) | 40.2 µM (inactive) | 28.6 µM (inactive) | 22.3 µM (inactive) | > 10 µM (inactive) | 17.5 µM (inactive) | –
2 | CCOC(=O)CNc1nnnn1C1OC(CO)C(O)C1O (stereo unspecified) | > 100 µM (inactive) | > 100 µM (inactive) | > 100 µM (inactive) | > 100 µM (inactive) | > 100 µM (inactive) | > 100 µM (inactive) | > 100 µM (inactive) | > 100 µM (inactive) | – | > 100 µM (inactive) | > 100 µM (inactive) | > 100 µM (inactive) | – | > 100 µM (inactive) | > 100 µM (inactive) | > 100 µM (inactive)
3 | N#Cc1cnsc1 | > 100 µM (inactive) | > 100 µM (inactive) | > 100 µM (inactive) | > 100 µM (inactive) | > 100 µM (inactive) | > 100 µM (inactive) | > 100 µM (inactive) | > 100 µM (inactive) | – | > 100 µM (inactive) | > 100 µM (inactive) | > 100 µM (inactive) | > 100 µM (inactive) | > 100 µM (inactive) | > 100 µM (inactive) | > 100 µM (inactive)
4 | COC(=O)C(C(=O)C(=O)Nc1c(Cl)cc([N+](=O)[O-])cc1Cl)c1csc(-n2nc(C3=CCCCC3)cc2-c2ccccc2)n1 (stereo unspecified) | 27.9 µM (inactive) | 45 µM (inactive) | 46.9 µM (inactive) | > 100 µM (inactive) | 73.5 µM (inactive) | – | 48.5 µM (inactive) | 25.9 µM (inactive) | 37.3 µM (inactive) | 35.5 µM (inactive) | – | 32.9 µM (inactive) | – | > 100 µM (inactive) | > 100 µM (inactive) | 25.4 µM (inactive)
5 | N#CNC(=N)NC(=O)/C=C/C=C/c1ccc(Cl)cc1 | > 100 µM (inactive) | > 100 µM (inactive) | > 100 µM (inactive) | > 100 µM (inactive) | > 100 µM (inactive) | 33.3 µM (inactive) | > 100 µM (inactive) | > 100 µM (inactive) | – | > 100 µM (inactive) | > 100 µM (inactive) | > 100 µM (inactive) | > 100 µM (inactive) | > 100 µM (inactive) | > 100 µM (inactive) | > 100 µM (inactive)
6 | OCC1=CC(NC2CC(CO)C(O)C(O)C2O)C(O)C(O)C1O (stereo unspecified) | > 100 µM (inactive) | > 100 µM (inactive) | – | > 100 µM (inactive) | > 100 µM (inactive) | – | > 100 µM (inactive) | > 100 µM (inactive) | > 100 µM (inactive) | > 100 µM (inactive) | > 100 µM (inactive) | – | > 100 µM (inactive) | > 100 µM (inactive) | – | 94.4 µM (inactive)
7 | CCCCCCCCCCCCCCC(O)C1CCC(C(O)CCC(O)CCCCCC(O)CC2=CC(C)OC2=O)O1 (stereo unspecified) | 0.187 µM (active) | – | 8.13 µM (inactive) | 6.3 µM (inactive) | 1.29 µM (inactive) | 0.0131 µM (active) | 0.0123 µM (active) | 0.0604 µM (active) | 1.81 µM (inactive) | – | 1.44 µM (inactive) | 4.45 µM (inactive) | 1.93 µM (inactive) | 2.74 µM (inactive) | 2.54 µM (inactive) | 1.09 µM (active)
8 | O=C1CCC(c2nc3cc(Cl)ccc3o2)C(=O)N1 (stereo unspecified) | – | > 100 µM (inactive) | > 100 µM (inactive) | > 100 µM (inactive) | > 100 µM (inactive) | > 100 µM (inactive) | > 100 µM (inactive) | > 100 µM (inactive) | > 100 µM (inactive) | > 100 µM (inactive) | > 100 µM (inactive) | > 100 µM (inactive) | > 100 µM (inactive) | > 100 µM (inactive) | > 100 µM (inactive) | > 100 µM (inactive)
9 | O=C(C/C(CCC(=O)N(Cc1ccccc1)Cc1ccccc1)=N/Nc1ccc([N+](=O)[O-])cc1[N+](=O)[O-])c1ccccc1 | 81.1 µM (inactive) | 77.1 µM (inactive) | – | 68.9 µM (inactive) | 35.9 µM (inactive) | – | 28.1 µM (inactive) | 35.2 µM (inactive) | > 100 µM (inactive) | – | > 100 µM (inactive) | – | > 100 µM (inactive) | > 100 µM (inactive) | > 100 µM (inactive) | > 100 µM (inactive)
10 | Sc1nnc(COc2ccc(Cl)cc2)o1 | > 100 µM (inactive) | > 100 µM (inactive) | > 100 µM (inactive) | > 100 µM (inactive) | > 100 µM (inactive) | > 100 µM (inactive) | > 100 µM (inactive) | > 100 µM (inactive) | > 100 µM (inactive) | > 100 µM (inactive) | > 100 µM (inactive) | > 100 µM (inactive) | > 100 µM (inactive) | > 100 µM (inactive) | – | > 100 µM (inactive)
11 | CC1(C)OCC(C(O)C2OC(C)(C)OC2/C=N\O)O1 (stereo unspecified) | > 100 µM (inactive) | > 100 µM (inactive) | – | – | > 100 µM (inactive) | > 100 µM (inactive) | > 100 µM (inactive) | > 100 µM (inactive) | > 100 µM (inactive) | > 100 µM (inactive) | > 100 µM (inactive) | > 100 µM (inactive) | > 100 µM (inactive) | > 100 µM (inactive) | > 100 µM (inactive) | –
12 | COc1ccc(-c2cc(-c3ccco3)c(C#N)c(=O)[nH]2)cc1 | > 100 µM (inactive) | > 100 µM (inactive) | – | > 100 µM (inactive) | > 100 µM (inactive) | > 10 µM (inactive) | > 100 µM (inactive) | > 100 µM (inactive) | > 100 µM (inactive) | 87.5 µM (inactive) | > 100 µM (inactive) | 28.2 µM (inactive) | > 100 µM (inactive) | 15.5 µM (inactive) | – | > 100 µM (inactive)
13 | O=C(O/N=C1\CCCC\C1=C/c1ccccc1)c1ccc([N+](=O)[O-])cc1 | > 100 µM (inactive) | – | > 100 µM (inactive) | > 100 µM (inactive) | > 100 µM (inactive) | – | 74.1 µM (inactive) | 98.4 µM (inactive) | – | 64.4 µM (inactive) | – | – | > 100 µM (inactive) | 86.3 µM (inactive) | > 100 µM (inactive) | > 100 µM (inactive)
14 | CCC(C)(C)NC1=C(NC(C)=O)C(=O)c2ccccc2C1=O | – | 57.3 µM (inactive) | – | > 75 µM (inactive) | 17 µM (inactive) | 13.5 µM (inactive) | 20.8 µM (inactive) | 27.5 µM (inactive) | > 75 µM (inactive) | 15.2 µM (inactive) | > 75 µM (inactive) | – | 61.5 µM (inactive) | 36.1 µM (inactive) | 21 µM (inactive) | > 75 µM (inactive)
15 | COc1cc(-c2cc(O)c3ccccc3n2)cc(OC)c1OC | > 75 µM (inactive) | > 75 µM (inactive) | – | > 75 µM (inactive) | > 75 µM (inactive) | – | > 75 µM (inactive) | 51.3 µM (inactive) | > 75 µM (inactive) | > 75 µM (inactive) | – | – | > 75 µM (inactive) | > 75 µM (inactive) | – | –
